The text below walks through data of PubChem BioAssay (NCI).

Molecules are shown by their SMILES.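 These data come from cells grown in 96-well plates and exposed to compound for 48 hours at five concentrations. TGI: total growth inhibition.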 Bounds are passed on as bounds.

The subject of one test is SW-620 colon. The experiment in a line: growth of human tumour cells (NCI), 48 h.
`CCCCSC1=N/C(=C\c2ccco2)C(Cl)=N1`: the TGI is over 100 µM.
On the same count and under the same terms, for `c1ccc(NN=C(c2ccccn2)c2ccccn2)nc1` the value was over 100 µM; for `CC(=O)O[C@H]1CCC2[C@@H]3CCC4Nc5oncc5C[C@]4(C)C3CC[C@@]21C` (some centres undefined), over 10 µM.
In turn, `CCOC(=O)c1nc2ccc(C(F)(F)F)cc2[nH]c1=O` gave a TGI of over 100 µM.
`COC1=CC2C(c3cc4ccccc4n3S(=O)(=O)c3ccccc3)CC1CN2C(=O)OCc1ccccc1` (centres undefined): the TGI is over 100 µM.
As to `Cc1cn(C2CC(O)C(CO[Si](C)(C)C(C)(C)C)OC2OC(C)C)c(=O)[nH]c1=O` (centres undefined), the TGI was over 100 µM.
Compound `CNC(=S)N=Nc1c(O)n(CN2CCOCC2)c2ccc([N+](=O)[O-])cc12` yielded a TGI of over 100 µM.
On to `COc1ccc(-c2csc(Cc3nc4ccccc4c(=O)n3-c3ccc(Cl)cc3)n2)cc1`, for which the TGI was over 100 µM.
Compound `O=C(Nc1nncs1)NS(=O)(=O)n1c(=S)sc2ccccc21` had a TGI of over 100 µM.
As for `Cc1nc2ccc(NC(=S)Nc3ccccc3)cc2c(=O)n1-c1ccccc1`, the TGI is over 100 µM.
In the case of `COc1ccc2[nH]c3c(c2c1)CC(=S)N1CCCC(CC3=O)C1` (centres undefined), the TGI is over 100 µM.
`COC(=O)CC1C=CC(C)(OC)OO1` (centres undefined) yielded a TGI of over 100 µM.
Still for that read-out and setting: for `CCOC(=O)CO/N=C1/C(c2c(O)[nH]c3ccccc23)=Nc2ccccc21` the value was over 100 µM.

The subject of another test is MCF7 breast. The experiment in a line: growth of human tumour cells (NCI), 48 h.
On to `CC(C)CC(NC(=O)C(CI)Cc1ccccc1)C(=O)Nc1ccccc1` (centres undefined), for which the TGI was over 100 µM.
`O=C1c2cccc3cccc(c23)C2NCCCN12` (centres undefined) had a TGI of over 100 µM.
In the case of `CCCCSC1=N/C(=C\c2ccco2)C(Cl)=N1`, the TGI is over 100 µM.
The same measure, in the same setting: the figure for `c1ccc(NN=C(c2ccccn2)c2ccccn2)nc1` is over 100 µM; for `CC(=O)O[C@H]1CCC2[C@@H]3CCC4Nc5oncc5C[C@]4(C)C3CC[C@@]21C` (some centres undefined) it is over 10 µM; for `CCOC(=O)c1nc2ccc(C(F)(F)F)cc2[nH]c1=O` it is over 100 µM.
On the same count and under the same terms, for `COC1=CC2C(c3cc4ccccc4n3S(=O)(=O)c3ccccc3)CC1CN2C(=O)OCc1ccccc1` (centres undefined) the value was over 100 µM.
`Cc1cn(C2CC(O)C(CO[Si](C)(C)C(C)(C)C)OC2OC(C)C)c(=O)[nH]c1=O` (centres undefined): the TGI was found to be 58.3 µM.
In turn, `CNC(=S)N=Nc1c(O)n(CN2CCOCC2)c2ccc([N+](=O)[O-])cc12` displayed a TGI of 42.9 µM.
In turn, `COc1ccc(-c2csc(Cc3nc4ccccc4c(=O)n3-c3ccc(Cl)cc3)n2)cc1` had a TGI of over 100 µM.
Same read-out and setting: for `O=C(Nc1nncs1)NS(=O)(=O)n1c(=S)sc2ccccc21` the value was over 100 µM; for `Cc1nc2ccc(NC(=S)Nc3ccccc3)cc2c(=O)n1-c1ccccc1`, over 100 µM.
The compound `COc1ccc2[nH]c3c(c2c1)CC(=S)N1CCCC(CC3=O)C1` (centres undefined) showed a TGI of over 100 µM.
Take `COC(=O)CC1C=CC(C)(OC)OO1` (centres undefined): the TGI is over 100 µM.
Same read-out and setting: the figure for `CCOC(=O)CO/N=C1/C(c2c(O)[nH]c3ccccc23)=Nc2ccccc21` is over 100 µM.

For the next test, the system named is NCI-H23 lung. The experiment in a line: growth of human tumour cells (NCI), 48 h.
The compound `CC(C)CC(NC(=O)C(CI)Cc1ccccc1)C(=O)Nc1ccccc1` (centres undefined) came in with a TGI of over 100 µM.
Same read-out and setting: for `O=C1c2cccc3cccc(c23)C2NCCCN12` (centres undefined) the value was over 100 µM.
On the same count and under the same terms, the figure for `CCCCSC1=N/C(=C\c2ccco2)C(Cl)=N1` is over 100 µM; for `c1ccc(NN=C(c2ccccn2)c2ccccn2)nc1` it is over 100 µM.
Regarding `CC(=O)O[C@H]1CCC2[C@@H]3CCC4Nc5oncc5C[C@]4(C)C3CC[C@@]21C` (some centres undefined), the TGI was over 10 µM.
In turn, `CCOC(=O)c1nc2ccc(C(F)(F)F)cc2[nH]c1=O` returned a TGI of over 100 µM.
On to `COC1=CC2C(c3cc4ccccc4n3S(=O)(=O)c3ccccc3)CC1CN2C(=O)OCc1ccccc1` (centres undefined), for which the TGI was over 100 µM.
For the compound `Cc1cn(C2CC(O)C(CO[Si](C)(C)C(C)(C)C)OC2OC(C)C)c(=O)[nH]c1=O` (centres undefined), the TGI was over 100 µM.
Consider `CNC(=S)N=Nc1c(O)n(CN2CCOCC2)c2ccc([N+](=O)[O-])cc12`, for which the TGI was determined as 32.2 µM.
Same read-out and setting: for `COc1ccc(-c2csc(Cc3nc4ccccc4c(=O)n3-c3ccc(Cl)cc3)n2)cc1` the value was over 100 µM; for `O=C(Nc1nncs1)NS(=O)(=O)n1c(=S)sc2ccccc21`, over 100 µM; for `Cc1nc2ccc(NC(=S)Nc3ccccc3)cc2c(=O)n1-c1ccccc1`, over 100 µM.
`COc1ccc2[nH]c3c(c2c1)CC(=S)N1CCCC(CC3=O)C1` (centres undefined) displayed a TGI of over 100 µM.
For `COC(=O)CC1C=CC(C)(OC)OO1` (centres undefined), the TGI is over 100 µM.
On the same count and under the same terms, the figure for `CCOC(=O)CO/N=C1/C(c2c(O)[nH]c3ccccc23)=Nc2ccccc21` is over 100 µM.

The next test relates to HCT-116 colon. The experiment in a line: growth of human tumour cells (NCI), 48 h.
On to `CC(C)CC(NC(=O)C(CI)Cc1ccccc1)C(=O)Nc1ccccc1` (centres undefined), for which the TGI is over 100 µM.
For the compound `O=C1c2cccc3cccc(c23)C2NCCCN12` (centres undefined), the TGI is over 100 µM.
On to `CCCCSC1=N/C(=C\c2ccco2)C(Cl)=N1`, for which the TGI was over 100 µM.
`c1ccc(NN=C(c2ccccn2)c2ccccn2)nc1` displayed a TGI of over 100 µM.
In turn, `CC(=O)O[C@H]1CCC2[C@@H]3CCC4Nc5oncc5C[C@]4(C)C3CC[C@@]21C` (some centres undefined) registered a TGI of over 10 µM.
Take `CCOC(=O)c1nc2ccc(C(F)(F)F)cc2[nH]c1=O`: the TGI was over 100 µM.
The compound `COC1=CC2C(c3cc4ccccc4n3S(=O)(=O)c3ccccc3)CC1CN2C(=O)OCc1ccccc1` (centres undefined) yielded a TGI of over 100 µM.
Same read-out and setting: for `Cc1cn(C2CC(O)C(CO[Si](C)(C)C(C)(C)C)OC2OC(C)C)c(=O)[nH]c1=O` (centres undefined) the value was 31.3 µM.
Take `CNC(=S)N=Nc1c(O)n(CN2CCOCC2)c2ccc([N+](=O)[O-])cc12`: the TGI came to 28.7 µM.
The compound `COc1ccc(-c2csc(Cc3nc4ccccc4c(=O)n3-c3ccc(Cl)cc3)n2)cc1` returned a TGI of 57.9 µM.
Same read-out and setting: for `O=C(Nc1nncs1)NS(=O)(=O)n1c(=S)sc2ccccc21` the value was over 100 µM.
Consider `Cc1nc2ccc(NC(=S)Nc3ccccc3)cc2c(=O)n1-c1ccccc1`, for which the TGI was over 100 µM.
In turn, `COc1ccc2[nH]c3c(c2c1)CC(=S)N1CCCC(CC3=O)C1` (centres undefined) registered a TGI of over 100 µM.
With `COC(=O)CC1C=CC(C)(OC)OO1` (centres undefined), the TGI is over 100 µM.
Compound `CCOC(=O)CO/N=C1/C(c2c(O)[nH]c3ccccc23)=Nc2ccccc21` returned a TGI of over 100 µM.

Another test has as its system NCI-H226 lung. The experiment in a line: growth of human tumour cells (NCI), 48 h.
Consider `O=C1c2cccc3cccc(c23)C2NCCCN12` (centres undefined), for which the TGI is over 100 µM.
`CCCCSC1=N/C(=C\c2ccco2)C(Cl)=N1` displayed a TGI of over 100 µM.
The compound `CC(=O)O[C@H]1CCC2[C@@H]3CCC4Nc5oncc5C[C@]4(C)C3CC[C@@]21C` (some centres undefined) showed a TGI of over 10 µM.
On to `CCOC(=O)c1nc2ccc(C(F)(F)F)cc2[nH]c1=O`, for which the TGI was over 100 µM.
In turn, `COC1=CC2C(c3cc4ccccc4n3S(=O)(=O)c3ccccc3)CC1CN2C(=O)OCc1ccccc1` (centres undefined) yielded a TGI of over 100 µM.
For the compound `Cc1cn(C2CC(O)C(CO[Si](C)(C)C(C)(C)C)OC2OC(C)C)c(=O)[nH]c1=O` (centres undefined), the TGI was over 100 µM.
Compound `CNC(=S)N=Nc1c(O)n(CN2CCOCC2)c2ccc([N+](=O)[O-])cc12` displayed a TGI of 36.3 µM.
`COc1ccc(-c2csc(Cc3nc4ccccc4c(=O)n3-c3ccc(Cl)cc3)n2)cc1` gave a TGI of over 100 µM.
`Cc1nc2ccc(NC(=S)Nc3ccccc3)cc2c(=O)n1-c1ccccc1` yielded a TGI of over 100 µM.
As for `COc1ccc2[nH]c3c(c2c1)CC(=S)N1CCCC(CC3=O)C1` (centres undefined), the TGI is over 100 µM.
The same measure, in the same setting: the figure for `COC(=O)CC1C=CC(C)(OC)OO1` (centres undefined) is over 100 µM.
